Values quoted from earlier work, collected in patent publication US20210260201A1, “EXTRACELLULAR VESICLES FOR THE TREATMENT AND PREVENTION OF INFECTIONS AND OTHER DISEASES” (PHYSIS BIOTECHNOLOGIES, LLC, priority 2020, published 2021).
Like-named read-outs stand apart in the source and are kept apart here.

C=C(C)[C@@H]1CCC(C)=C[C@H]1c1c(O)cc(CCCCC)cc1O [CBD, cannabidiol]
bioavailability (intranasal): 34-46% | bioavailability (oral (edibles)): 6-20% | bioavailability (sublingual (tinctures)): 13-19%
